In patent US20040053234A1, “Polynucletides that control delta-6 desaturase genes and methods for identifying compounds for modulating delta-6 desaturase” (priority 2000, published 2004):

What was measured:
[1] = system: whole cells of transformed Saccharomyces cerevisiae; experiment: O.D.600 and substrate radioactivity recovered in whole yeast cells; details: hD6D-1 whole cells
Procedure: Transformed Saccharomyces cerevisiae pTh5002.1 with V5/6xHis tags were incubated in a 125 ml Erlenmeyer flask containing 9 ml of modified SC-U medium with 1% tergitol (O.D.6000.4, approximately 3.2×10^6 cells) and 200 μl of 7, 14 or 28 mM n-propyl gallate in ethanol. After 1 h incubation in an orbital incubator at 270 rpm and 30° C., 1 μCi of potassium salts of [1-^14C]-linoleic or [1-^14C]-alpha-linolenic acids (dissolved in modified SC-U medium and 1% tergitol) were added to the cell suspension to a final concentration of 2 μM. After 5 h incubation with the inhibitor, cells reached the log phase and the transgene expression was induced with the addition of 1 ml of galactose to a final concentration of 2%.

[2] = biological target: T1, hD6D-1 (with V5/6xHis tags) (Homo sapiens, UniProt O95864)
T1 sequence (O95864 1-444): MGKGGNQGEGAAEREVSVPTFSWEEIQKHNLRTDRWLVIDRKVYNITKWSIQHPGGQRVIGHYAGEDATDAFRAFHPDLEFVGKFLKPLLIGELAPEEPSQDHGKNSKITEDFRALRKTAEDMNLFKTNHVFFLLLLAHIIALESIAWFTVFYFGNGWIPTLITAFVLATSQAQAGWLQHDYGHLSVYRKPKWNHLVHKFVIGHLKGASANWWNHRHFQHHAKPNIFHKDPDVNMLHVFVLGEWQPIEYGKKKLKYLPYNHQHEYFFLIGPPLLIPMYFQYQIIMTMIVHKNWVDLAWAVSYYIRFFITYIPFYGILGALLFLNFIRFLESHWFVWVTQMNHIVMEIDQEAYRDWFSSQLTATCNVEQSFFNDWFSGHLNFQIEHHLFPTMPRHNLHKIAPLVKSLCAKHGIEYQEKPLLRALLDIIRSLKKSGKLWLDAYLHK
Procedure: (§1) Saccharomyces cerevisiae transformed with pYr5003.1 without V5/6×His tags or pTh5002.1 with V5/6×His tags were grown in modified SC-U medium with 2% galactose to induce the expression of the gene that encodes the fatty acid delta-6-desaturase. After 16 h incubation, cells were centrifuged at 2060×g for 5 min at 4° C., washed once with distilled water and centrifuged again. The volume and weight of the cell pellet were measured Cells were suspended (1:2 w/v) in 0.1 M Tris.SO4 (pH 9.4), 10 mM DTT and incubated at 30° C. After 10 min incubation, the cell pellet was obtained by centrifugation, washed once (1:20 w/v) with 1.2 M sorbitol and suspended (1:1 w/v) in 1.2 M sorbitol, 20 mM phosphate buffer (pH 7.4) as described elsewhere (Daum et al., 1982, J. Biol. Chem., 257: 13028-13033). The 15,800× g (1 min) supernatant of Lyticase was added to the cell suspension at a concentration of 2000 U/ml and the suspension incubated at 30° C. with 50 rpm shaking. Conversion to spheroplasts was checked after 40 min incubation by diluting the suspension with distilled water followed by observation under the microscope (Schatz G. and Kovac L., 1974, Methods in Enzymology, 31A: 627-632).
(§2) Spheroplasts were harvested by centrifugation at 2060×g for 5 min at 4° C. and washed once with 1.2 M sorbitol. Spheroplasts were suspended in modified SC-U medium with 1% tergitol, 1.2 M sorbitol and 2% galactose to maintain the induction conditions and to give an OD600 reading of approximately 2.5-3.0. A 10 ml aliquot of the spheroplast suspension was transferred to a 125 ml Erlenmeyer flask and incubated with 200 μL of n-propyl gallate in ethanol (final concentration in the culture ranged between 0.7 and 14.1 mM) at 30° C. in an orbital incubator set at 270 rpm After 30 min incubation 1 μCi of [1-^14C]-alpha-linolenic or [1-^14C]-linoleic acids were added to the cultures to a final concentration of 2 μM and further incubated for 120 min. At this time point, turbidity readings at OD600 were taken, spheroplasts were harvested by centrifugation and washed with Tris buffer (100 mM, pH 8.0) containing 0.1%/o BSA. Total lipids were extracted as described below.
(§3) The radioactivity from aliquots of the supernatant, spheroplasts and whole cells was determined by liquid scintillation counting using a LS6500-Scintillation System (Beckman) prior to the lipid extraction. Total lipids were extracted from cells or spheroplasts with chloroform/methanol (2:1 v/v) according to the method of Folch et al., 1957, J. Biol. Chem., 226: 497-509. The total lipid extracts were methylated using boron trifluoride in methanol at 90° C. for 30 min.
(§4) The desaturase activity was determined by measuring the conversion of radiolabelled linoleic acid to gammna-linolenic acid (18:2n-6 to 18:3n-6) and alpha-linolenic acid to stearidonic acid (18:3n-3 to 18:4n-3). The percent inhibition was calculated as described elsewhere (Kawashima et al., 1996, Biosci. Biotech. Biochem., 60:1672-1676):
(§5) Inhibition % =(activity without the inhibitor−activity with the inhibitor)/activity without the inhibitor

[3] = biological target: rD6D-1 (without V5/6xHis tags) (Rattus norvegicus, UniProt Q9Z122)
Procedure: as §1, §2, §3, §4, §5

[4] = system: delta-6-desaturase; experiment: Inhibition of delta-6-desaturase in rat liver microsomes incubated with [1-14C]-dihomogammalinolenic acid; type: biochemical; details: for % of inhibition: substrate [1-14C]-dihomogammalinolenic acid
Procedure: Wistar rats under light halothane (15% in mineral oil) anesthesia were sacrificed by exsanguination during periods of high enzyme activity. Livers are immediately rinsed with cold 0.9% NaCl solution, weighed and minced with scissors. All procedures are performed at 4° C. unless specified otherwise. Livers are homogenized in a solution (1:3 w/v) containing 0.25 M sucrose, 62 mM potassium phosphate buffer (pH 7.0), 0.15 M KCl, 1.5 mM N-acetylcysteine, 5 mM MgCl2, and 0.1 mM EDTA using 4 strokes of a Potter-Elvehjem tissue homogenizer. The homogenate is centrifuged at 10,400×g for 20 min to eliminate mitochondria and cellular debris. The supernatant is filtered through a 3-layer cheesecloth and centrifuged at 105,000×g for 60 min. The microsomal pellet is gently resuspended in the same homogenization solution with a small glass/teflon homogenizer and stored at −70° C. The absence of mitochondrial contamination is enzymatically assessed. The protein concentration is measured using bovine serum albumin as the standard.
Reactions are started by adding 2 mg of microsomal protein to pre-incubated tubes containing 0.20 μCi of the substrate fatty acid (DGLA) at a final concentration of 33.3 μM in 1.5 ml of homogenization solution, containing NaF (42 mM), niacinamide (0.33 mM), ATP (1.57 mM), NADH (1.0 mM), coenzyme A (0.09 mM) and a range of concentrations of the enzyme modulators. N-propyl gallate was added to the incubation medium to a final concentration of 0.02-0.32 mM. The tubes are vortexed vigorously and after 15 min incubation in a shaking water bath (37° C.), the reactions are stopped and fatty acids are analyzed as described in herein. Alternatively, fatty acid methyl esters are analyzed by capillary column gas chromatography (GC).

[5] = biological target: T2, delta 6 desaturase (Rattus norvegicus, UniProt Q9Z122); experiment: Inhibition of delta 6 desaturase in rat liver microsomes incubated with alpha-linolenic or linoleic acid; type: biochemical
T2 construct: from tissue; host or cells: rat liver microsomes (female Wistar rats)
Procedure: As proposed by Leikin and Brenner (Leikin A. I. and Brenner R. R., 1989, Biochim. Biophys. Acta. September 25, 1005: 187-191), the following are best conditions for the desaturation assays since the enzymes are saturated with the substrates and the reactions are linear within the incubation time. Reactions were started by adding 2 or 3 mg of microsomal protein to pre-incubated tubes containing 0.20 μCi of the substrate fatty acid at a final concentration of 33.3 μM in 1.5 ml of the homogenization solution, containing NaF (42 mM), niacinamide (0.33 mM), ATP (1.57 mM), NADH (1.01 mM) and coenzyme A (0.09 mM) as described elsewhere (Leikin A. I. and Brenner R. R., 1989, Biochim. Biophys. Acta. September 25,1005: 187-191).The tubes were vortexed vigorously and after 15 min incubation in a shaling water bath (37° C.), the reactions were stopped by the addition of 2 ml of 10% (w/v) KOH in ethanol. Lipids in the incubation mixture were saponified at 80° C. for 45 min under N2. The samples were then left in ice for 5 min before acidification. The fatty acids were extracted with hexane and esterified with BF3/methanol at 90° C. for 30 min (Morrison W. R. and Smith L. M., 1964, J. Lipid Res., 5: 600-608).
Hepatic microsomes were obtained from female Wistar rats by differential centrifigation as described in Example 3.
Incubations were performed as described in Example 3. N-propyl gallate was added to the incubation medium to a final concentration that ranged from 0.02 to 0.32 mM.

[6] = system: fatty acid desaturases; details: Kawashima et al., 1996; cited from earlier work
[7] = biological target: T1, hD6D-1 (with V5/6xHis tags); experiment: Inhibition of hD6D-1 in spheroplasts of transformed Saccharomyces cerevisiae; details: [1-14C]-alpha-linolenic acid
Procedure: as §1, §2, §3, §4, §5

T2 sequence (Q9Z122 whole entry): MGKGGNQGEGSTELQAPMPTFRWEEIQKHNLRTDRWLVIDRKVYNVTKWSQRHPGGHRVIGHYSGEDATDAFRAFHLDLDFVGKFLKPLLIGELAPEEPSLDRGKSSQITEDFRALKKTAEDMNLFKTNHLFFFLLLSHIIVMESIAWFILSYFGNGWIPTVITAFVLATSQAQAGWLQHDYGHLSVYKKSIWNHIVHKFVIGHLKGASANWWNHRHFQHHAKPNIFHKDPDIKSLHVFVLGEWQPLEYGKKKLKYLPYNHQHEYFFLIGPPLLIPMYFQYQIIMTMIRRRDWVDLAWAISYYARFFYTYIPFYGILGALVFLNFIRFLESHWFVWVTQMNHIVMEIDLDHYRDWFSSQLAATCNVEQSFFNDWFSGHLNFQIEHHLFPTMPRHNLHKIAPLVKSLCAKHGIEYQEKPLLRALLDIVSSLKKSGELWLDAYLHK
Chain of rD6D-1 (without V5/6xHis tags) (Q9Z122 whole entry): as above

CCCOC(=O)c1cc(O)c(O)c(O)c1 [n-propyl gallate, Propyl ester of 3,4,5-trihydroxybenzoic acid]
O.D.600 ([1]; inhibitor 7 mM): 9.3
O.D.600 ([1]; inhibitor 14 mM): 7.2
O.D.600 ([1]; inhibitor 28 mM): 0
inhibition [2]: 82.3%
inhibition [3]: 100%
% of inhibition ([4]; inhibitor 0.02 mM): 62.9%
% of inhibition ([4]; inhibitor 0.04 mM): 74.9%
% of inhibition ([4]; inhibitor 0.08 mM): 86.4%
% of inhibition ([4]; inhibitor 0.16 mM): 88.7%
% of inhibition ([4]; inhibitor 0.32 mM): 100.0%
Inhibitor concentration at which a plateau of inhibition was reached ([4]; rat liver microsomes, Table 20): 0.08 to 0.32 mM
% of inhibition 18:2n-6 → 18:3n-6 ([5]; inhibitor 0.02 mM): 18.0%
% of inhibition 18:3n-3 → 18:4n-3 ([5]; inhibitor 0.02 mM): 28.7%
% of inhibition 18:2n-6 → 18:3n-6 ([5]; inhibitor 0.04 mM): 32.0%
% of inhibition 18:3n-3 → 18:4n-3 ([5]; inhibitor 0.04 mM): 42.5%
% of inhibition 18:2n-6 → 18:3n-6 ([5]; inhibitor 0.08 mM): 64.5%
% of inhibition 18:3n-3 → 18:4n-3 ([5]; inhibitor 0.08 mM): 54.2%
% of inhibition 18:2n-6 → 18:3n-6 ([5]; inhibitor 0.16 mM): 82.6%
% of inhibition 18:3n-3 → 18:4n-3 ([5]; inhibitor 0.16 mM): 71.3%
% of inhibition 18:2n-6 → 18:3n-6 ([5]; inhibitor 0.32 mM): 98.7%
% of inhibition 18:3n-3 → 18:4n-3 ([5]; inhibitor 0.32 mM): 79.5%
Mode of inhibition [6]: noncompetitive inhibitor
% of inhibition ([7]; inhibitor 0.7 mM): 11.6%
% of inhibition ([7]; inhibitor 1.4 mM): 18.8%
% of inhibition ([7]; inhibitor 2.8 mM): 56.4%
% of inhibition ([7]; inhibitor 14.1 mM): 100%
